In brackets after ≈: the same amount, converted by molar mass.
Tests used:
[1] = tested on: Escherichia coli; test: Antibacterial activity against Escherichia coli at 100 ug/ml after 18 hrs by disk diffusion method; type: functional; conditions: read-out: IZ
[2] = tested on: Salmonella enterica subsp. enterica; test: Antibacterial activity against Salmonella Typhimurium at 100 ug/ml after 18 hrs by disk diffusion method; type: functional, Salmonella enterica subsp. enterica serovar Typhimurium; conditions: read-out: IZ
[3] = tested on: Streptococcus pyogenes; test: Antibacterial activity against Streptococcus pyogenes at 100 ug/ml after 18 hrs by disk diffusion method; type: functional; conditions: read-out: IZ
[4] = tested on: Staphylococcus aureus; test: Antibacterial activity against Staphylococcus aureus at 100 ug/ml after 18 hrs by disk diffusion method; type: functional; conditions: read-out: IZ
[5] = tested on: Escherichia coli; test: Antibacterial activity against Escherichia coli at 30 ug/disk after 18 hrs by disk diffusion method; type: functional; conditions: read-out: IZ
[6] = tested on: Staphylococcus aureus; test: Antibacterial activity against Staphylococcus aureus after 18 hrs by macro dilution test; type: functional
[7] = tested on: Escherichia coli; test: Antibacterial activity against Escherichia coli after 18 hrs by macro dilution test; type: functional
[8] = tested on: Salmonella enterica subsp. enterica; test: Antibacterial activity against Salmonella Typhimurium after 18 hrs by macro dilution test; type: functional, Salmonella enterica subsp. enterica serovar Typhimurium
[9] = tested on: Salmonella enterica subsp. enterica; test: Antibacterial activity against Salmonella Typhimurium at 30 ug/disk after 18 hrs by disk diffusion method; type: functional, Salmonella enterica subsp. enterica serovar Typhimurium; conditions: read-out: IZ
[10] = tested on: Staphylococcus aureus; test: Antibacterial activity against Staphylococcus aureus at 30 ug/disk after 18 hrs by disk diffusion method; type: functional; conditions: read-out: IZ
[11] = tested on: Streptococcus pyogenes; test: Antibacterial activity against Streptococcus pyogenes after 18 hrs by macro dilution test; type: functional
[12] = tested on: Streptococcus pyogenes; test: Antibacterial activity against Streptococcus pyogenes at 30 ug/disk after 18 hrs by disk diffusion method; type: functional; conditions: read-out: IZ

Row | SMILES | zone of inhibition at 100 µg/mL [1] [mm] | zone of inhibition at 100 µg/mL [2] [mm] | zone of inhibition at 100 µg/mL [3] [mm] | zone of inhibition at 100 µg/mL [4] [mm] | zone of inhibition at 30 µg/disc [5] [mm] | MIC [6] [mg/L] | MIC [7] [mg/L] | MIC [8] [mg/L] | zone of inhibition at 30 µg/disc [9] [mm] | zone of inhibition at 30 µg/disc [10] [mm] | MIC [11] [mg/L] | zone of inhibition at 30 µg/disc [12] [mm]
1 | CC(C)CCC[C@@H](C)[C@H]1CC[C@H]2[C@@H]3C/C(=N/NC(=S)NC4CCCC4)[C@H]4CCCC[C@]4(C)[C@H]3CC[C@]12C | 12.3 | 10.4 | 10.2 | 9.4 |  |  |  |  |  |  |  | 
2 | CC(C)CCC[C@@H](C)[C@H]1CC[C@H]2[C@@H]3C/C(=N/NC(=S)NC4CCCC4)[C@H]4C[C@@H](Cl)CC[C@]4(C)[C@H]3CC[C@]12C | 11.7 | 11.2 | 10.2 | 11.5 |  |  |  |  |  |  |  | 
3 | CC1(C)S[C@@H]2[C@H](NC(=O)[C@H](N)c3ccc(O)cc3)C(=O)N2[C@H]1C(=O)O [AMOXICILLIN] |  |  |  |  | 20.2 | 32 (≈ 87.6 µM) | 32 (≈ 87.6 µM) | 32 (≈ 87.6 µM) | 17.2 | 17 | 32 (≈ 87.6 µM) | 18.2
4 | CC(=O)O[C@H]1CC[C@@]2(C)[C@H](C1)/C(=N\N=C1/SCC(=O)N1C1CCCC1)C[C@@H]1[C@@H]2CC[C@]2(C)[C@@H]([C@H](C)CCCC(C)C)CC[C@@H]12 | 22.8 | 19.6 | 21.4 | 18.5 |  | 64 (≈ 102 µM) | 32 (≈ 51.1 µM) | 64 (≈ 102 µM) |  |  | 32 (≈ 51.1 µM) | 
5 | CC(C)CCC[C@@H](C)[C@H]1CC[C@H]2[C@@H]3C/C(=N/N=C4\SCC(=O)N4C4CCCC4)[C@H]4C[C@@H](Cl)CC[C@]4(C)[C@H]3CC[C@]12C | 22.5 | 19.4 | 21.4 | 20.4 |  | 32 (≈ 53.1 µM) | 64 (≈ 106 µM) | 64 (≈ 106 µM) |  |  | 32 (≈ 53.1 µM) | 
6 | CC(=O)O[C@H]1CC[C@@]2(C)[C@H](C1)/C(=N\NC(=S)NC1CCCC1)C[C@@H]1[C@@H]2CC[C@]2(C)[C@@H]([C@H](C)CCCC(C)C)CC[C@@H]12 | 13.3 | 10.4 | 11.4 | 12.6 |  |  |  |  |  |  |  | 
7 | CC(C)CCC[C@@H](C)[C@H]1CC[C@H]2[C@@H]3C/C(=N/N=C4\SCC(=O)N4C4CCCC4)[C@H]4CCCC[C@]4(C)[C@H]3CC[C@]12C | 14.2 | 13.6 | 15.2 | 14.5 |  | 128 (≈ 225 µM) | 128 (≈ 225 µM) | 128 (≈ 225 µM) |  |  | 128 (≈ 225 µM) | 

— ChEMBL document CHEMBL1158386, “Synthesis and biological evaluation of some thiazolidinone derivatives of steroid as antibacterial agents” (2009)
